{"source": "paper PMC12811658", "about": "“Design, Synthesis, and Structural Evolution of Pseudo‐Natural Product IDO1 Inhibitors and Degraders” (Angewandte Chemie (International Ed. in English), 2025)", "key": {"recombinant human IDO1": {"molecular_target": "T1, recombinant human IDO1 (Homo sapiens, UniProt P14902)", "T1 construct": "The GST-tag of IDO1 was removed to obtain untagged full-length IDO1l using PreScission protease; GST (N, cleaved yes); made in house; own inference", "T1 sequence (P14902 whole entry)": "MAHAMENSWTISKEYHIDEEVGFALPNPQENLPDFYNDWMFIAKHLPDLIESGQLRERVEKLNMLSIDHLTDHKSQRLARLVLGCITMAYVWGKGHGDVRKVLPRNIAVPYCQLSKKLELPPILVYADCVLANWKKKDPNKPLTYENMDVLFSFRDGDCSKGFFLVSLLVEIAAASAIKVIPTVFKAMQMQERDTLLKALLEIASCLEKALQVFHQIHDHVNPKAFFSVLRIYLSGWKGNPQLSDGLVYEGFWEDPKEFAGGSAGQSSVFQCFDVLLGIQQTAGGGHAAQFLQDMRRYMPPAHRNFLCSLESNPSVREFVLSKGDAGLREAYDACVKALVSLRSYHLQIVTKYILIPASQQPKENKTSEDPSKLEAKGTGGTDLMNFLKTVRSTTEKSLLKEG", "assay": "IDO1 enzymatic assay in vitro", "format": "biochemical", "conditions": "at 14 µM; pre-incubation 37 °C 45 min; mean ± SD"}, "[1]": {"system": "global proteome of SKOV-3 cells", "assay": "TMT-based global proteome profiling", "format": "cell-based", "conditions": "10 µM vs DMSO, 4 h, LC-MS/MS", "experimental": "Figure 3 Comparison of IDO1 degradation efficiency for selected compounds. a) Detection of IDO1 levels using immunostaining. IFN‐γ stimulated HeLa cells were treated with the compounds for 24 h. IDO1 protein abundance was detected with IDO1 antibody. Data are mean values ± SD, n = 3. b) IDO1 protein levels in BxPC3 cells upon compounds treatment were detected using immunoblotting. BxPC3 cells were treated with IFN‐γ for 24 h prior to washout, followed by addition of compounds. Representative blot and quantified band intensities are shown (mean values ± SD, n = 3). See Figure S11a S12a for the uncropped blots. c) Key functions of hit compounds that influence degradation efficiency. d) Heatmap for IDO degradation efficiency. IDO1 levels were monitored as described in (c). See Table S1 for mean values and Figure S11b for the uncropped blots. e)–g) Dose dependent degradation of IDO1 protein in BxPC3 cells treated with iDeg‐7–9 and detected as described in (c). Representative data of n = 3 except for iDeg‐9 (n = 4). See Figure S12 S13 for the uncropped blots. h) Quantification of IDO1 protein levels from e‐g (mean values ± SD, n = 3 except for iDeg‐9 (n = 4). i) Tabulated inhibition and degradation ability of iDeg‐6–9. ND: not detected. j) Volcano plot of iDeg‐6‐induced changes on the global proteome. SKOV‐3 cells were treated with 10 µM iDeg‐6 or DMSO for 4 h followed by protein extraction, tryptic digest and LC‐MS/MS analysis (n = 4). Plot generated using UMSAP (T 0 = 0.5, S 0 = 0.5).\nCells were collected after trypsinization. The collected cell suspension was centrifugated and washed twice by cold PBS before lysate preparation by means of four freeze-thaw cycles in PBS containing 0.4% NP-40 alternative with protease (Roche, #5892970001) and phosphatase inhibitors (Roche, #4906845001). Protein concentration was determined by DC protein assay (BIO-RAD, #5000116) and 200 μg of protein lysates were subjected to the sample preparation and MS analysis. Protein lysates were dissolved in equal volume of 100 mM triethylammonium bicarbonate (TEAB) buffer supplemented with 7.5 µL of a 200 mM Tris(2-carboxyethyl) phosphine (TCEP) followed by an incubation step at 55 °C for 1 h. Afterwards, 7.5 µL of 375 mM iodoacetamide were added and samples were incubated for another 30 min at room temperature in the dark prior to acetone-based protein precipitation (pre-incubation at -20 °C overnight). On the next day, samples were centrifuged at 8,000 x g and 4 °C, the supernatant was aspired and protein pellets were dried at room temperature. Pellets were dissolved in digestion buffer (trypsin: protein ratio-1:50 (w/w)), in which trypsin was pre-dissolved in 10 mM HCl, and then diluted in 100 mM TEAB buffer to a final concentration of 0.4 µg/µL trypsin in 10 mM HCl, then the sample was incubated with shaking overnight at 37 °C. On the next day, samples were labelled with TMT10plex reagents (Thermo Scientific, WL320956) following the instruction of the TMT10plex Mass Tag Labeling Kit. Namely, 20 µL of the TMTpro Label reagent was added to each 100 µL sample (100 µg protein) followed by incubation for 2 h at room temperature while shaking. Afterwards, 5 µL of 5% hydroxylamine was added into each sample, and the samples were incubated for 15 min to quench the reaction. Equal amounts of each sample were combined in a new tube. The pooled samples were dried in a SpeedVac at 30 °C until the liquid evaporated completely.\nAll solvents used during MS measurements were LC-MS grade. The TMTpro labeled peptides were cleaned up and fractionated using a reversed-phase fractionation spin column (Thermo Fisher Scientific ^#84868) following the instructions of the Pierce™ High pH Reversed-Phase Peptide Fractionation kit. Briefly, the combined labeled samples (40 µg) were fully dissolved in 300 μL of 0.1% TFA and loaded onto an activated spin column, followed by centrifugation at 3000 g for 2 minutes. […]"}, "[2]": {"assay": "Pharmacokinetics of iDeg-6", "format": "in vivo, male C57Bl/6 mice", "conditions": "male, C57Bl/6, mouse, plasma", "experimental": "In vivo pharmacology characterization was carried out at Pharmacelsus GmbH, Saarbrücken, Germany, using male C57Bl/6 mice. Food and water was provided ad libitum before and during each study. All experimental procedures were approved by and conducted in accordance with the regulations of the local Animal Welfare Authorities. Plasma samples were analysed by liquid chromatography tandem-mass spectrometry using a generic method. Pharmacokinetic parameters were calculated by non-compartmental analysis. […] Up to 120 mg/kg PO and 30 mg/kg IP no clinical signs were observed. […] Due to the larger plasma exposure of iDeg-6 the IP route was selected for efficacy studies."}, "[3]": {"system": "IDO1 mRNA levels in SKOV-3 cells", "assay": "RT-qPCR of IDO1 expression", "format": "cell-based", "conditions": "24 h", "experimental": "a, IDO1 mRNA levels in SKOV-3 cells.\nTo assess IDO1 gene expression in the SKOV3 cell line, SKOV3 cells were seeded into 24-well plates. After 24 h, the cells were treated with the indicated concentrations of compounds, followed by an additional 24 h incubation."}}, "data": [{"smiles": "C#Cc1ccc(NC(=O)OC[C@]23CN(S(=O)(=O)c4ccc(C(C)(C)C)cc4C)C[C@H]2C[C@H]2C[C@@H]3C2(C)C)cc1", "note": "[98 (iDeg-6), ((3aS,4R,6R,7aS)-2-((4-(tert-butyl)-2-methylphenyl)sulfonyl)-5,5-dimethyloctahydro-3aH-4,6-methanoisoindol-3a-yl)methyl (4-ethynylphenyl)carbamate]", "values": [{"measurement": "inhibition at 14 µM", "setting": "recombinant human IDO1", "result": "40 ± 7", "unit": "%"}, {"measurement": "Difference in protein level: ATP6V0D1", "setting": "[1]", "result": 0.47}, {"measurement": "Difference in protein level: COX6C", "setting": "[1]", "result": 0.79}, {"measurement": "Difference in protein level: COX7A2", "setting": "[1]", "result": 0.74}, {"measurement": "Difference in protein level: COX7C", "setting": "[1]", "result": 0.6}, {"measurement": "Difference in protein level: ERLIN2", "setting": "[1]", "result": 0.69}, {"measurement": "Difference in protein level: IDO1", "setting": "[1]", "result": -0.53}, {"measurement": "Difference in protein level: MT-CO2", "setting": "[1]", "result": 0.44}, {"measurement": "Difference in protein level: MT-ND2", "setting": "[1]", "result": 0.52}, {"measurement": "Difference in protein level: NDUFA3", "setting": "[1]", "result": 0.44}, {"measurement": "Difference in protein level: NDUFA9", "setting": "[1]", "result": 0.58}, {"measurement": "Difference in protein level: NDUFB3", "setting": "[1]", "result": 0.53}, {"measurement": "Difference in protein level: NDUFB11", "setting": "[1]", "result": 0.51}, {"measurement": "Difference in protein level: NDUFC2", "setting": "[1]", "result": 0.57}, {"measurement": "Difference in protein level: NDUFS5", "setting": "[1]", "result": 0.51}, {"measurement": "Difference in protein level: PHB", "setting": "[1]", "result": 0.45}, {"measurement": "Difference in protein level: PHB2", "setting": "[1]", "result": 0.54}, {"measurement": "Difference in protein level: TCIRG1", "setting": "[1]", "result": 0.37}, {"measurement": "Difference in protein level: TOMM5", "setting": "[1]", "result": 0.56}, {"measurement": "Difference in protein level: TOMM22", "setting": "[1]", "result": 0.6}, {"measurement": "Difference in protein level: TOMM40", "setting": "[1]", "result": 0.45}, {"measurement": "Difference in protein level: UQCRB", "setting": "[1]", "result": 0.52}, {"measurement": "Difference in protein level: VDAC3", "setting": "[1]", "result": 0.52}, {"measurement": "AUC(0-inf)", "setting": "[2]; 1 mg/kg IV", "result": 414, "unit": "ng·h/mL"}, {"measurement": "C0", "setting": "[2]; 1 mg/kg IV", "result": 1120, "unit": "ng/mL"}, {"measurement": "clearance", "setting": "[2]; 1 mg/kg IV", "result": 40.3, "unit": "mL/min/kg"}, {"measurement": "half-life", "setting": "[2]; 1 mg/kg IV", "result": 1.1, "unit": "h"}, {"measurement": "Vd", "setting": "[2]; 1 mg/kg IV, read-out: Vz", "result": 3.82, "unit": "L/kg"}, {"measurement": "AUC(0-inf)", "setting": "[2]; 30 mg/kg IP", "result": 7040, "unit": "ng·h/mL"}, {"measurement": "Cmax", "setting": "[2]; 30 mg/kg IP", "result": 872, "unit": "ng/mL"}, {"measurement": "bioavailability", "setting": "[2]; 30 mg/kg IP", "result": 57, "unit": "%"}, {"measurement": "half-life", "setting": "[2]; 30 mg/kg IP", "result": 4, "unit": "h"}, {"measurement": "IDO1 transcription (in words)", "setting": "[3]", "result": "without affecting its transcription"}]}]}
